As usually defined, the EC50 is the concentration giving half of the maximal effect.

From patent publication US10336733B2, “Aryl acylsulfonamides as BLT1 antagonists” (Merck Sharp & Dohme Corp., priority 2015, dated 2019) come the findings set out here.

human BLT1 receptor, sequence (Q15722 whole entry): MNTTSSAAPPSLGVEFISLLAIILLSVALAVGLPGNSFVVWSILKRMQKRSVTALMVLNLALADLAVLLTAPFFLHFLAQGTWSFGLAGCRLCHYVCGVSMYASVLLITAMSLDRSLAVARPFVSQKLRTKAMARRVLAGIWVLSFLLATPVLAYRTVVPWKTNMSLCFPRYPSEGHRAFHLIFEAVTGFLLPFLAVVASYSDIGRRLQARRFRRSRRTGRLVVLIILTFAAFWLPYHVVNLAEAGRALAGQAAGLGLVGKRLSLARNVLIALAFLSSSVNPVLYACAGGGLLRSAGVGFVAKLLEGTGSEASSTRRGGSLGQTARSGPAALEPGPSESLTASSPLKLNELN

The test has as its target human BLT1 receptor (Homo sapiens (Human), UniProt Q15722). The test is described as follows: BLT-1 cAMP Assay. In kind it is cell-based. The settings on record: antagonist mode; HEK293 cells recombinantly expressing human BLT1 receptor; forskolin 4 μM and LTB4 2 nM; cAMP detection. The procedure:
The ability of compounds to antagonize the human BLT1 receptor was determined using a kit to measure changes in intracellular cyclic AMP levels (cAMP dynamic assay kit, Cisbio Cat. No. 62AM4PEC). HEK293 cells recombinantly expressing human BLT1 receptor, previously frozen in Recovery Medium (Life Technologies, Cat. No. 12648-010) were thawed and diluted into assay medium (HBSS (Hyclone SH 30268.01), 20 mM HEPES (Gibco 15630-106), 800 μM IBMX (Sigma I5879), 0.1% DTPA BSA (Perkin Elmer CR84-100)). The cell suspension was centrifuged at 200×g for 10 min and then resuspended in fresh assay medium to a density of 2.5×10^5 cells/mL. A Labcyte Echo 550 acoustic dispenser was used to transfer 25 nL of test compound dissolved in DMSO into the wells of a dry 384-well plate (Greiner 784075). All subsequent liquid additions were performed using a BIORAPTR (FRD; Beckman Coulter). Next, 5 μL of cell suspension was added and incubated for 20 min. at 37° C. and 5% CO2 in a humidified plastic tray. To test for agonist activity […] of assay buffer containing forskolin (Sigma F-6886. 4 μM for BLT1) was added and incubated for 30 minutes at 37° C. and 5% CO2 in a humidified plastic tray. To test for antagonist activity 5 μL of assay buffer containing forskolin (Sigma F-6886. 4 μM for BLT1) and either LTB4 (Sigma Aldrich L0517; 2 nM BLT1) was added and incubated for 30 minutes at 37° C. and 5% CO2 in a humidified plastic tray.
The levels of cAMP were detected using the CisBio kit following the manufacturer's instructions: cAMP-d2 vial was reconstituted with distilled water and then diluted accordingly with conjugate & lysis buffer. 5 μL of cAMP-d2 working solution was added to all of the wells of the assay plate. cAMP-Cryptate vial was reconstituted with distilled water and then diluted accordingly with conjugate & lysis buffer. 5 μL of cAMP-Cryptate working solution were added to the assay plate. The assay plate was shaken for 3 minutes and incubated at room temperature for 45 minutes, then read on Perkin Elmer Envision. cAMP standard curve and fit data were plotted using a 4 parameter dose response curve fitting algorithm to fit curve. A 4-parameter curve fit (Max, min, log EC50 and slope) was used to transform fluorescent 665 nm/615 nm ratio signal to cAMP concentration. After normalization to treated and untreated controls, the percent effect of signal at each compound concentration was calculated. The plot of percent effect versus the log of compound concentration was fit with a 4-parameter concentration response equation to calculate EC50 values. Compound concentrations tested were 10 000, 3 333, 1 111, 370.4, 123.4, 41.2, 13.7, 4.6, 1.5 and 0.5 nM with 0.25% residual DMSO.
For `CC1(S(=O)(=O)NC(=O)c2ccccc2-c2ccc3c(c2)OCC(Cc2coc(-c4ccccc4)n2)C3O)CC1` (racemic) [Example 46, 2-(Rac-trans)-4-Hydroxy-3-((2-phenyloxazol-4-yl)methyl)chroman-7-yl)-N-((1-methylcyclopropyl)sulfonyl)benzamide], the 50% effective concentration (EC50) is 15 nM.

As for `CC(C)(C)S(=O)(=O)NC(=O)c1ccccc1-c1ccc2c(c1)OC[C@@H](Cc1cscn1)[C@@H]2O` (single isomer, unassigned) [Example 33, N-(tert-Butylsulfonyl)-2-((3R,4S or 3S,4R)-4-hydroxy-3-(thiazol-4-ylmethyl)chroman-7-yl)benzamide], the EC50 came to 808 nM.

For `CC(C)(C)S(=O)(=O)NC(=O)c1ccc(F)cc1-c1ccc2c(c1)OC[C@H](Cc1ccccn1)[C@H]2O` (single isomer, unassigned) [Example 14, N-(tert-Butylsulfonyl)-4-fluoro-2-((3S,4R or 3R,4S)-4-hydroxy-3-(pyridin-2-ylmethyl)chroman-7-yl)benzamide], the EC50 was found to be 2 nM.

Regarding `CC1(S(=O)(=O)NC(=O)c2ccccc2-c2ccc3c(c2)OC[C@H](Cc2cscn2)[C@H]3O)CC1` (racemic) [Example 25, 2-(Rac-trans)-4-Hydroxy-3-(thiazol-4-ylmethyl)chroman-7-yl)-N-((1-methylcyclopropyl)sulfonyl)benzamide], the EC50 stood at 16 nM.

Consider `C[C@H](c1ccccn1)C1COc2cc(-c3ccccc3C(=O)NS(=O)(=O)C3(C)CC3)ccc2C1O` (stereo in doubt) [Example 50, 2-((3,4-trans)-4-Hydroxy-3-((S)-1-(pyridin-2-yl)ethyl)chroman-7-yl)-N-((1-methylcyclopropyl)sulfonyl)benzamide], for which the EC50 worked out at 67 nM.

Consider `O=C(NS(=O)(=O)C(F)(F)F)c1ccc(F)cc1-c1ccc2c(c1)OC[C@H](Cc1ccccn1)[C@H]2O` (single isomer, unassigned) [Example 2, 4-Fluoro-2-((3S,4R or 3R,4S)-4-hydroxy-3-(pyridin-2-ylmethyl)chroman-7-yl)-N-((trifluoromethyl)sulfonyl)benzamide], for which the EC50 was determined as 6 nM.

Take `CC(C)(C)S(=O)(=O)NC(=O)c1ccccc1-c1ccc2c(c1)OC[C@H](Cc1ccccn1)[C@H]2O` (single isomer, unassigned) [Example 12, N-(tert-Butylsulfonyl)-2-((3S,4R or 3R,4S)-4-hydroxy-3-(pyridin-2-ylmethyl)chroman-7-yl)benzamide]: the concentration giving a half-maximal response (EC50) worked out at 17 nM.

For the compound `CC1(S(=O)(=O)NC(=O)c2ccccc2-c2ccc3c(c2)OC[C@H](Cc2ccccc2)[C@H]3O)CC1` (single isomer, unassigned) [Example 22, 2-((3S,4R or 3R,4S)-3-Benzyl-4-hydroxychroman-7-yl)-N-((1-methylcyclopropyl)sulfonyl)benzamide], the EC50 worked out at 15 nM.

With `CS(=O)(=O)NC(=O)c1ccc(F)cc1-c1ccc2c(c1)OC[C@H](Cc1ccccn1)[C@H]2O` (single isomer, unassigned) [Example 4, 4-Fluoro-2-((3S,4R or 3R,4S)-4-hydroxy-3-(pyridin-2-ylmethyl)chroman-7-yl)-N-(methylsulfonyl)benzamide], the EC50 worked out at 93 nM.

For the compound `O=C(NS(=O)(=O)C1CC1)c1ccccc1-c1ccc2c(c1)OC[C@@H](Cc1ccccn1)[C@@H]2O` (single isomer, unassigned) [Example 5, N-(Cyclopropylsulfonyl)-2-((3R,4S or 3S,4R)-4-hydroxy-3-(pyridin-2-ylmethyl)chroman-7-yl)benzamide], the EC50 was determined as 2170 nM.

Take `O=C(NS(=O)(=O)C(F)(F)F)c1ccc(F)cc1-c1ccc2c(c1)OC[C@@H](Cc1ccc(-c3ccccc3)cc1)[C@@H]2O` (single isomer, unassigned) [Example 41, 2-((3R,4S or 3S,4R)-3-([1,1′-Biphenyl]-4-ylmethyl)-4-hydroxychroman-7-yl)-4-fluoro-N-((trifluoromethyl)sulfonyl)benzamide]: the EC50 is 11 nM.

As for `CC(C)(C)S(=O)(=O)NC(=O)c1ccccc1-c1ccc2c(c1)OC[C@@H](Cc1cscn1)[C@@H]2O` (racemic) [Example 32, N-(tert-Butylsulfonyl)-2-((rac-trans)-4-hydroxy-3-(thiazol-4-ylmethyl)chroman-7-yl)benzamide], the EC50 was 11 nM.

With `CC(C)CS(=O)(=O)NC(=O)c1ccccc1-c1ccc2c(c1)OCC(Cc1ccccn1)C2O` (stereo not drawn) [Example 17, 2-((3,4-trans)-4-Hydroxy-3-(pyridin-2-ylmethyl)chroman-7-yl)-N-(isobutylsulfonyl)benzamide], the EC50 stood at 24 nM.

Consider `Cn1nccc1C[C@@H]1COc2cc(-c3ccccc3C(=O)NS(=O)(=O)C3(C)CC3)ccc2[C@H]1O` (racemic) [Example 28, 2-(Rac-trans)-4-Hydroxy-3-((1-methyl-1H-pyrazol-5-yl)methyl)chroman-7-yl)-N-((1-methylcyclopropyl)sulfonyl)benzamide], for which the EC50 came out at 360 nM.

Consider `O=C(NS(=O)(=O)C(F)(F)F)c1ccc(F)cc1-c1ccc2c(c1)OC[C@H](Cc1ccc(-c3ccccc3)cc1)[C@@H]2O` (racemic) [Example 39, 2-((Rac-cis)-3-([1,1′-Biphenyl]-4-ylmethyl)-4-hydroxychroman-7-yl)-4-fluoro-N-((trifluoromethyl)sulfonyl)benzamide], for which the EC50 is 37 nM.

As for `CC1(S(=O)(=O)NC(=O)c2ccccc2-c2ccc3c(c2)OC[C@H](Cc2coc(-c4ccccc4)n2)[C@H]3O)CC1` (single isomer, unassigned) [Example 45, 2-((3S,4R or 3R,4S)-4-hydroxy-3-((2-phenyloxazol-4-yl)methy)chroman-7-yl)-N-((1-methylcyclopropyl)sulfonyl)benzamide], the EC50 stood at 3 nM.

As to `CCn1nccc1C[C@H]1COc2cc(-c3ccccc3C(=O)NS(=O)(=O)C(C)(C)C)ccc2[C@@H]1O` (single isomer, unassigned) [Example 37, N-(tert-Butylsulfonyl)-2-((3S,4R or 3R,4S)-3-((1-ethyl-1H-pyrazol-5-yl)methyl)-4-hydroxychroman-7-yl)benzamide], the EC50 worked out at 36 nM.

As to `CCn1nccc1C[C@@H]1COc2cc(-c3ccccc3C(=O)NS(=O)(=O)C(C)(C)C)ccc2[C@H]1O` (racemic) [Example 36, N-(tert-Butylsulfonyl)-2-((rac-trans)-3-((1-ethyl-1H-pyrazol-5-yl)methyl)-4-hydroxychroman-7-yl)benzamide], the EC50 was 81 nM.

As to `O=C(NS(=O)(=O)C(F)(F)F)c1ccc(F)cc1-c1ccc2c(c1)OC[C@@H](Cc1ccccn1)[C@@H]2O` (single isomer, unassigned) [Example 1, 4-Fluoro-2-((3R,4S or 3S,4R)-4-hydroxy-3-(pyridin-2-ylmethyl)chroman-7-yl)-N-((trifluoromethyl)sulfonyl)benzamide], the EC50 is 650 nM.

For `O=C(NS(=O)(=O)CC1CC1)c1ccccc1-c1ccc2c(c1)OCC(Cc1ccccn1)C2O` (stereo not drawn) [Example 18, N-((Cyclopropylmethyl)sulfonyl)-2-((3,4-trans)-4-hydroxy-3-(pyridin-2-ylmethyl)chroman-7-yl)benzamide], the EC50 came to 23 nM.

For `CC(C)(C)CS(=O)(=O)NC(=O)c1ccccc1-c1ccc2c(c1)OCC(Cc1ccccn1)C2O` (stereo not drawn) [Example 20, 2-((3,4-trans)-4-Hydroxy-3-(pyridin-2-ylmethyl)chroman-7-yl)-N-(neopentylsulfonyl)benzamide], the EC50 came out at 44 nM.
